Drawing on US20250320213A1, “Nitrogen-Containing Heterocyclic Compounds” (Pfizer Inc., priority 2024, published 2025), this text covers EC50 for 16 compounds.

Structures are written as SMILES.

One may read the EC50 as the concentration at which the effect is half-maximal.

The target in this test is T1, STAT6 (Homo sapiens, UniProt P42226).
T1 construct: stably transfected HaCaT keratinocyte cell line, which expresses NanoLuc luciferase reporter gene under the transcriptional control of the STAT6 responsive promoter; endogenous in cells; host or cells: HaCaT keratinocyte reporter cell line (stably transfected with a NanoLuc reporter)
T1 sequence (P42226 1-847): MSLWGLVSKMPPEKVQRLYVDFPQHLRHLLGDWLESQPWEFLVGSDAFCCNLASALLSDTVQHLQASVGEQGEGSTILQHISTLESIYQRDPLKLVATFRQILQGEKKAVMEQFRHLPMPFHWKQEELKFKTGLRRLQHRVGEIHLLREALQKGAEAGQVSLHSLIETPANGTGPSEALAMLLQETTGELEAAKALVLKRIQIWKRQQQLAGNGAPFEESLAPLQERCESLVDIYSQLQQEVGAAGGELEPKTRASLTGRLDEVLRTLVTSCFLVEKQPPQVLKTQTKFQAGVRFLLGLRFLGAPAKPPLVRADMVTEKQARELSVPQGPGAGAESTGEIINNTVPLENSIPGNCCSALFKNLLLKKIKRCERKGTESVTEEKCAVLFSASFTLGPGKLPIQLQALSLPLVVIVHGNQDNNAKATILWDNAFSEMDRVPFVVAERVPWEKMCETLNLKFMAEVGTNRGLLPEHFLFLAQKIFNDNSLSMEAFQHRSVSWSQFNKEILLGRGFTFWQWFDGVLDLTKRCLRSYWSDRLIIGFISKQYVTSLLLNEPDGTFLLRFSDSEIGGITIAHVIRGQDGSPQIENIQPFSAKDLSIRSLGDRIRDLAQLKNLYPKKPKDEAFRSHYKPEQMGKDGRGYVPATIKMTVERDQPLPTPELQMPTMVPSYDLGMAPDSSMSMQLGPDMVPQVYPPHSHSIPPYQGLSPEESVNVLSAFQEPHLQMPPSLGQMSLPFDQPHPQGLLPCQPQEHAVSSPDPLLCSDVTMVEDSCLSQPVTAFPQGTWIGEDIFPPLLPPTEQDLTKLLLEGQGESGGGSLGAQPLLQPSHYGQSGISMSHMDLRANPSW
The test is described as follows: STAT6 Reporter Luciferase Assay (IL-13 stimulated HaCaT keratinocyte NanoLuc reporter cells). Format: cell-based. The following applies: IL-13 stimulated HaCaT STAT6 NanoLuc reporter cells; read-out: Reporter EC50. In short, it runs like this: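 Compounds were tested as 11-point, 4-fold series in duplicate, applied for 2 h at 37 °C in low-serum (2% FBS) DMEM. The cells were a stable HaCaT line with NanoLuc under a STAT6-responsive IL-13Ra2 promoter. After 4 h with 0.12 nM IL-13, Nano-Glo luminescence was measured.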
For `CC(C)n1nc(C(=O)NCc2ccc(NC(=O)N(C)C)cc2)c2c1CCN(c1ccc(C(=O)N3Cc4ccnn4C(C)C3)cn1)C2` (stereo not shown) [Example 424, N-(4-(3,3-dimethylureido)benzyl)-1-isopropyl-5-(5-(7-methyl-4,5,6,7-tetrahydropyrazolo[1,5-a]pyrazine-5-carbonyl)pyridin-2-yl)-4,5,6,7-tetrahydro-1H-pyrazolo[4,3-c]pyridine-3-carboxamide], the EC50 came out at 46 nM.

As to `CC(C)n1nc(C(=O)NCc2ccc(NC(=O)N(C)C)cc2)c2c1CCN(c1ccc(C(=O)N3CCn4nccc4C3)cn1)C2` [Example 425, N-(4-(3,3-dimethylureido)benzyl)-1-isopropyl-5-(5-(4,5,6,7-tetrahydropyrazolo[1,5-a]pyrazine-5-carbonyl)pyridin-2-yl)-4,5,6,7-tetrahydro-1H-pyrazolo[4,3-c]pyridine-3-carboxamide], the EC50 was found to be 34 nM.

Consider `CC(C)n1nc(C(=O)NCc2ccc(NC(=O)N(C)C)cc2)c2c1CCN(c1ccc(C(=O)N3Cc4ccccc4[C@H]3C)cn1)C2` [Example 426, (R)-N-(4-(3,3-dimethylureido)benzyl)-1-isopropyl-5-(5-(1-methylisoindoline-2-carbonyl)pyridin-2-yl)-4,5,6,7-tetrahydro-1H-pyrazolo[4,3-c]pyridine-3-carboxamide], for which the EC50 turned out to be 13 nM.

Regarding `CC(C)n1nc(C(=O)NCc2ccc(NC(=O)N(C)C)cc2)c2c1CCN(c1ccc(C(=O)N3CCn4nncc4C3)cn1)C2` [Example 427, N-(4-(3,3-dimethylureido)benzyl)-1-isopropyl-5-(5-(4,5,6,7-tetrahydro-[1,2,3]triazolo[1,5-a]pyrazine-5-carbonyl)pyridin-2-yl)-4,5,6,7-tetrahydro-1H-pyrazolo[4,3-c]pyridine-3-carboxamide], the EC50 is 282 nM.

Turning to `CC(C)n1nc(C(=O)NCc2ccc(NC(=O)N(C)C)cc2)c2c1CCN(c1ccc(C(=O)N3CCc4oncc4C3)cn1)C2` [Example 432, N-(4-(3,3-dimethylureido)benzyl)-1-isopropyl-5-(5-(4,5,6,7-tetrahydroisoxazolo[4,5-c]pyridine-5-carbonyl)pyridin-2-yl)-4,5,6,7-tetrahydro-1H-pyrazolo[4,3-c]pyridine-3-carboxamide], the EC50 is 186 nM.

Consider `CC(C)n1nc(C(=O)NCc2ccc(NC(=O)N(C)C)cc2)c2c1CCN(c1ccc(C(=O)N3CCc4cncnc4C3)cn1)C2` [Example 433, N-(4-(3,3-dimethylureido)benzyl)-1-isopropyl-5-(5-(5,6,7,8-tetrahydropyrido[3,4-d]pyrimidine-7-carbonyl)pyridin-2-yl)-4,5,6,7-tetrahydro-1H-pyrazolo[4,3-c]pyridine-3-carboxamide], for which the EC50 turned out to be 276 nM.

Turning to `CC(C)n1nc(C(=O)NCc2ccc(NC(=O)N(C)C)cc2)c2c1CCN(c1ccc(C(=O)N3CCc4cnccc4C3)cn1)C2` [Example 434, N-(4-(3,3-dimethylureido)benzyl)-1-isopropyl-5-(5-(1,2,3,4-tetrahydro-2,6-naphthyridine-2-carbonyl)pyridin-2-yl)-4,5,6,7-tetrahydro-1H-pyrazolo[4,3-c]pyridine-3-carboxamide], the EC50 stood at 82 nM.

Turning to `CC(C)n1nc(C(=O)NCc2ccc(NC(=O)N(C)C)cc2)c2c1CCN(c1ccc(C(=O)N3CCc4ccccc4C3)cn1)C2` [Example 435, N-(4-(3,3-dimethylureido)benzyl)-1-isopropyl-5-(5-(1,2,3,4-tetrahydroisoquinoline-2-carbonyl)pyridin-2-yl)-4,5,6,7-tetrahydro-1H-pyrazolo[4,3-c]pyridine-3-carboxamide], the concentration for a half-maximal effect (EC50) turned out to be 10 nM.

Consider `CC(C)n1nc(C(=O)NCc2ccc(NC(=O)N(C)C)cc2)c2c1CCN(c1ccc(C(=O)N3CCc4cc(C#N)ccc4C3)cn1)C2` [Example 436, 5-(5-(6-cyano-1,2,3,4-tetrahydroisoquinoline-2-carbonyl)pyridin-2-yl)-N-(4-(3,3-dimethylureido)benzyl)-1-isopropyl-4,5,6,7-tetrahydro-1H-pyrazolo[4,3-c]pyridine-3-carboxamide], for which the EC50 came to 22 nM.

Consider `CC(C)n1nc(C(=O)NCc2ccc(NC(=O)N(C)C)cc2)c2c1CCN(c1ccc(C(=O)N3CCn4cncc4C3)cn1)C2` [Example 438, N-(4-(3,3-dimethylureido)benzyl)-1-isopropyl-5-(5-(5,6,7,8-tetrahydroimidazo[1,5-a]pyrazine-7-carbonyl)pyridin-2-yl)-4,5,6,7-tetrahydro-1H-pyrazolo[4,3-c]pyridine-3-carboxamide], for which the EC50 is 105 nM.

Regarding `CC(C)n1nc(C(=O)NCc2ccc(NC(=O)N(C)C)cc2)c2c1CCN(c1ccc(C(=O)N3CCn4c(cccc4=O)C3)cn1)C2` [Example 439, N-(4-(3,3-dimethylureido)benzyl)-1-isopropyl-5-(5-(6-oxo-1,3,4,6-tetrahydro-2H-pyrido[1,2-a]pyrazine-2-carbonyl)pyridin-2-yl)-4,5,6,7-tetrahydro-1H-pyrazolo[4,3-c]pyridine-3-carboxamide], the 50% effective concentration (EC50) was 88 nM.

Turning to `Cc1cc2c(cn1)CN(C(=O)c1ccc(N3CCc4c(c(C(=O)NCc5ccc(NC(=O)N(C)C)cc5)nn4C(C)C)C3)nc1)C2` [Example 440, N-(4-(3,3-dimethylureido)benzyl)-1-isopropyl-5-(5-(6-methyl-2,3-dihydro-1H-pyrrolo[3,4-c]pyridine-2-carbonyl)pyridin-2-yl)-4,5,6,7-tetrahydro-1H-pyrazolo[4,3-c]pyridine-3-carboxamide], the EC50 came to 16 nM.

Regarding `Cc1cccc2c1CN(C(=O)c1ccc(N3CCc4c(c(C(=O)NCc5ccc(NC(=O)N(C)C)cc5)nn4C(C)C)C3)nc1)C2` [Example 441, N-(4-(3,3-dimethylureido)benzyl)-1-isopropyl-5-(5-(4-methylisoindoline-2-carbonyl)pyridin-2-yl)-4,5,6,7-tetrahydro-1H-pyrazolo[4,3-c]pyridine-3-carboxamide], the EC50 is 2 nM.

For `CC(C)n1nc(C(=O)NCc2ccc(NC(=O)N(C)C)cc2)c2c1CCN(c1ccc(C(=O)N3Cc4ccccc4C3)cn1)C2` [Example 442, N-(4-(3,3-dimethylureido)benzyl)-5-(5-(isoindoline-2-carbonyl)pyridin-2-yl)-1-isopropyl-4,5,6,7-tetrahydro-1H-pyrazolo[4,3-c]pyridine-3-carboxamide], the EC50 turned out to be 2 nM.

In the case of `Cc1nnn2c1CN(C(=O)c1ccc(N3CCc4c(c(C(=O)NCc5ccc(NC(=O)N(C)C)cc5)nn4C(C)C)C3)nc1)CC2` [Example 455, N-(4-(3,3-dimethylureido)benzyl)-1-isopropyl-5-(5-(3-methyl-4,5,6,7-tetrahydro-[1,2,3]triazolo[1,5-a]pyrazine-5-carbonyl)pyridin-2-yl)-4,5,6,7-tetrahydro-1H-pyrazolo[4,3-c]pyridine-3-carboxamide], the EC50 worked out at 311 nM.

Take `CCS(=O)(=O)N1CCN(C(=O)c2ccc(N3CCc4c(c(C(=O)NCc5ccc(NC(=O)N(C)C)cc5)nn4C(C)C)C3)nc2)CC1` [Example 563, N-(4-(3,3-dimethylureido)benzyl)-5-(5-(4-(ethylsulfonyl)piperazine-1-carbonyl)pyridin-2-yl)-1-isopropyl-4,5,6,7-tetrahydro-1H-pyrazolo[4,3-c]pyridine-3-carboxamide]: the EC50 is 202 nM.
